{"source": "ChEMBL document CHEMBL3638649", "about": "“Dihydroorotate dehydrogenase inhibitors” (2015)", "target": "Dihydroorotate dehydrogenase (quinone), mitochondrial (Homo sapiens, UniProt Q02127)", "sequence (Q02127 whole entry)": "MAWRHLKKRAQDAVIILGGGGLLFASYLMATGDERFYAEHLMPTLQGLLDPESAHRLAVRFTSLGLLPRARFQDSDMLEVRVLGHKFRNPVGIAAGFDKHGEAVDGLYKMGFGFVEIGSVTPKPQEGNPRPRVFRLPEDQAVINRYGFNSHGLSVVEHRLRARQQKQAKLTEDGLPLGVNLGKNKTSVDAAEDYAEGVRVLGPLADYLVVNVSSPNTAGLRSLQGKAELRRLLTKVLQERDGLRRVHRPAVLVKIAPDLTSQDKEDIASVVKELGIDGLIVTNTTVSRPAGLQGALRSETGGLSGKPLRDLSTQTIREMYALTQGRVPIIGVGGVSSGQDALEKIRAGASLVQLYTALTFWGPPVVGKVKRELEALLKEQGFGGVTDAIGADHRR", "experiment": "Enzyme Assay: The DHODH activity assay is a coupled enzyme assay in which oxidation of DHO and subsequent reduction of ubiquinone are stoichiometrically equivalent to the reduction of DCIP ([…]). The reduction of DCIP is accompanied by a loss of absorbance at 610 nm.Reagents Used:L-Dihydroorotic acid, Sigma, D7128, 2,6-Dichloroindophenol sodium salt hydrate, sigma, D1878 Dimethyl sulfoxide (DMSO), spectroscopic grade purchased from Spectrochem, cat no. 0704209, B. no.--3183650 Decylubiquinone, Sigma, D7911Preparation of Solutions/Reagents:Buffer Preparation: 50 mM tris HCl, 150 mM KCl, and pH 8.0, 0.8% triton.L-Dihydroorotic acid stock solution of 20 mM in buffer2,6-Dichloroindophenol Sodium salt hydrate stock solution of 20 mM in bufferDecylubiquinone stock solution of 20 mM in bufferDMSO used as vehicleProcedure:5 µL of Dimethyl sulfoxide or a compound of formula I in DMSO solution was added to the wells of a 96 well plate. Compounds of formula I were measured at 10 µM.", "note": "pIC50: −log10 of the molar value.", "data": [{"smiles": "Cc1cc(C(=O)O)c2nc(C#Cc3ccccc3)[nH]c2c1", "values": [{"measurement": "pIC50", "value": 4.94}]}]}
